Data published in patent publication US20240041042A1, “1-(PYRIDYL)-5-AZINYLPYRAZOLE DERIVATIVES, AND THEIR USE FOR CONTROL OF UNDESIRED PLANT GROWTH” (Bayer Aktiengesellschaft, priority 2020, published 2024).
Like-named read-outs stand apart in the source and are kept apart here.

How the values were obtained:
Assay type in all cases: in vivo
[1] = test system: Alopecurus myosuroides (ALOMY); test: Pre-emergence herbicidal action against ALOMY; conditions: 320 g/ha; scored visually after about 3 weeks; 100% = plants have died
How it was run: (§1)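 Application rates ran to 320 g/ha or lower, with several dosages tested on the same weeds. The compound, as wettable powder or emulsion concentrate, is sprayed pre-emergence onto soil over sown seeds; greenhouse growth follows, and effect is rated visually after roughly 3 weeks.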

[2] = test system: Digitaria sanguinalis (DIGSA); test: Pre-emergence herbicidal action against DIGSA; conditions: dosage 320 g/ha
How it was run: as §1

[3] = test system: Matricaria inodora (MATIN); test: Pre-emergence herbicidal action against MATIN; conditions: dosage 320 g/ha
How it was run: as §1

[4] = test system: Polygonum convolvulus (POLCO); test: Pre-emergence herbicidal action against POLCO; conditions: dosage 320 g/ha
How it was run: as §1

Setaria viridis (SETVI) = test: Pre-emergence herbicidal action against SETVI; conditions: dosage 320 g/ha
How it was run: as §1

Viola tricolor (VIOTR) [5] = test: Pre-emergence herbicidal action against VIOTR
How it was run: as §1

Glycine max (GLXMA) = conditions: pre-emergence, crop plant compatibility, in comparison to untreated controls
How it was run: (§2)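 Crop injury rated visually in percent against untreated plants roughly 3 weeks after treatment (0% no effect, 100% plants dead). Compounds, as WP or EC with 0.5% additive in 600 l/ha water, were applied to the covering soil right after sowing; greenhouse growth. Suffixes a, b, c denote different dosages.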

[6] = test system: Alopecurus myosuroides (ALOMY); test: Post-emergence herbicidal action against ALOMY; conditions: 320 g/ha, visual rating about 3 weeks after treatment vs untreated controls (100% = plants have died, 0% = like control plants)
How it was run: (§3)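 Greenhouse plants sprayed at the one-leaf stage, 2–3 weeks after sowing, with WP or EC formulations plus 0.5% additive at 600 l/ha water. Activity rated visually after about 3 weeks versus untreated controls (100% = dead, 0% = like control), at 320 g/ha or lower.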

[7] = test system: Digitaria sanguinalis (DIGSA); test: Post-emergence herbicidal action against DIGSA; conditions: 320 g/ha, visual rating about 3 weeks after treatment
How it was run: as §3

[8] = test system: Echinochloa crus-galli (ECHCG); test: Post-emergence herbicidal action against ECHCG; conditions: dosage 320 g/ha
How it was run: as §3

[9] = test system: Polygonum convolvulus (POLCO); test: Post-emergence herbicidal action against POLCO; conditions: dosage 320 g/ha
How it was run: as §3

Viola tricolor (VIOTR) [10] = test: Post-emergence herbicidal action against VIOTR
How it was run: as §3

Oryza sativa (ORYSA) [11] = conditions: crop plant compatibility, effect in comparison to untreated controls
How it was run: (§4)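 One-leaf-stage crops (2–3 wk post-sowing, sandy loam, greenhouse) sprayed on green parts; 0.5% additive, 600 l/ha water. Rated by eye ~3 wk later, % vs untreated; suffixes a/b/c mark different dosages.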

Zea mays (ZEAMX) [12] = conditions: crop plant compatibility, effect vs untreated controls
How it was run: as §4

[13] = test system: Amaranthus retroflexus (AMARE); test: Pre-emergence herbicidal action against AMARE; conditions: 320 g/ha, visual scoring after about 3 weeks vs untreated controls
How it was run: as §1

Oryza sativa (ORYSA) [14] = conditions: pre-emergence, crop plant compatibility, in comparison to untreated controls
How it was run: as §2

Zea mays (ZEAMX) [15] = conditions: pre-emergence, crop plant compatibility, in comparison to untreated controls
How it was run: as §2

[16] = test system: Amaranthus retroflexus (AMARE); test: Post-emergence herbicidal action against AMARE
How it was run: as §3

[17] = test system: Triticum aestivum (TRZAS); conditions: crop plant compatibility, 80 g/ha, effect vs untreated controls
How it was run: as §4

[18] = test system: Verconica persica (VERPE); test: Post-emergence herbicidal action against VERPE; conditions: 320 g/ha, VERPE
How it was run: as §3

[19] = 320 g/ha, visual rating about 3 weeks after treatment

CC(C)C(Oc1nn(-c2ccccn2)c(-c2ccc(F)nc2)c1Br)C(=O)O (stereo not shown) [Example I-347]
Pre-emergence action against ALOMY [1]: 80% | Pre-emergence action against DIGSA in % [2]: 90% | Pre-emergence action against MATIN in % [3]: 80% | Pre-emergence action against POLCO in % [4]: 80% | Pre-emergence action against SETVI in % (Setaria viridis (SETVI)): 80% | Pre-emergence action against VIOTR in % (Viola tricolor (VIOTR) [5]; 320 g/ha, Viola tricolor): 100% | Pre-emergence action against VIOTR in % (Viola tricolor (VIOTR) [5]; dosage 80 g/ha): 90% | Pre-emergence action against GLXMA in % (Glycine max (GLXMA); 80 g/ha): 10% | Post-emergence action against ALOMY in % [6]: 80% | Post-emergence action against DIGSA in % [7]: 80% | Post-emergence action against ECHCG in % [8]: 80% | Post-emergence action against POLCO in % [9]: 80% | Post-emergence action against VIOTR in % (Viola tricolor (VIOTR) [10]; 80 g/ha): 80% | Post-emergence action against VIOTR in % (Viola tricolor (VIOTR) [10]; 320 g/ha): 80% | Post-emergence action against ORYSA in % (Oryza sativa (ORYSA) [11]; 80 g/ha): 0% | Post-emergence action against ORYSA in % (Oryza sativa (ORYSA) [11]; 320 g/ha): 0% | Post-emergence action against ZEAMX in % (Zea mays (ZEAMX) [12]; 80 g/ha): 20%

C[C@H](NC(=O)COc1nn(-c2ccnc(F)c2)c(-c2ccc(F)nc2)c1Br)C(=O)O [III-25]
Pre-emergence action against AMARE in % [13]: 80% | Pre-emergence action against GLXMA in % (Glycine max (GLXMA); 80 g/ha): 0% | Pre-emergence action against ORYSA in % (Oryza sativa (ORYSA) [14]; 80 g/ha): 0% | Pre-emergence action against ORYSA in % (Oryza sativa (ORYSA) [14]; 320 g/ha): 0% | Pre-emergence action against ZEAMX in % (Zea mays (ZEAMX) [15]; 80 g/ha): 20% | Post-emergence action against AMARE in % [16, 19]: 80% | Post-emergence action against ORYSA in % (Oryza sativa (ORYSA) [11]; 80 g/ha): 0% | Post-emergence action against ORYSA in % (Oryza sativa (ORYSA) [11]; 320 g/ha): 0% | Post-emergence action against TRZAS in % [17]: 0% | Post-emergence action against ZEAMX in % (Zea mays (ZEAMX) [12]; 80 g/ha): 0% | Post-emergence action against ZEAMX in % (Zea mays (ZEAMX) [12]; 320 g/ha): 0%

C[C@@H](Oc1nn(-c2ccnc(Cl)c2)c(-c2ccc(F)nc2)c1Br)C(=O)O [III-30]
Pre-emergence action against GLXMA in % (Glycine max (GLXMA); 80 g/ha): 20% | Pre-emergence action against GLXMA in % (Glycine max (GLXMA); 320 g/ha): 20% | Pre-emergence action against ORYSA in % (Oryza sativa (ORYSA) [14]; 80 g/ha): 10% | Pre-emergence action against ORYSA in % (Oryza sativa (ORYSA) [14]; 320 g/ha): 20% | Pre-emergence action against ZEAMX in % (Zea mays (ZEAMX) [15]; 80 g/ha): 0% | Pre-emergence action against ZEAMX in % (Zea mays (ZEAMX) [15]; 320 g/ha): 10% | Post-emergence action against ALOMY in % [6]: 80% | Post-emergence action against AMARE in % ([16]; 80 g/ha, visual rating about 3 weeks after treatment vs untreated controls (100% = plants have died, 0% = like control plants)): 80% | Post-emergence action against AMARE in % [16, 19]: 90% | Post-emergence action against POLCO in % [9]: 90% | Post-emergence action against VERPE in % [18]: 80% | Post-emergence action against VIOTR in % (Viola tricolor (VIOTR) [10]; 320 g/ha): 80% | Post-emergence action against ORYSA in % (Oryza sativa (ORYSA) [11]; 80 g/ha): 10% | Post-emergence action against ORYSA in % (Oryza sativa (ORYSA) [11]; 320 g/ha): 20% | Post-emergence action against ZEAMX in % (Zea mays (ZEAMX) [12]; 80 g/ha): 20%
